Where a name gives a salt, the structure may show the parent alone. Read-outs that look alike come from different tables or passages of the source.
Tests used:
MDA-MB-435 cells = experiment: MTT assay, continuous drug exposure for 48 hours (Table 3); format: cell-based, human; conditions: for IC80: MDA-MB-435, read-out: CC80
CEM or HEY cells = experiment: Cytotoxicity of salicylhydrazides (Table 5); format: cell-based; conditions: Homo sapiens
Excerpt: Human prostate cancer cells (PC3, p53 null, AR−; DU145, p53 mutant, AR−; and LNCaP, p53 wild-type, AR+) and breast cancer cells (MCF-7, overexpressed wild-type p53, ER+; MDA-MB-468, p53 mutant, […]; and MDA-MB-435, p53 mutant, ER−) were obtained from American Type Cell Culture (Manassas, Va.). The human ovarian carcinoma cell line (HEY) naturally resistant to cisplatin (CDDP) was kindly provided by Dr. Dubeau (University of Southern California Norris Cancer Center; Buick et al. (1985) Cancer Res. 45:3668-76 and Hamaguchi et al. (1993) Cancer Res. 53:5225-32). The results with CEM cells were previously described (Neamati et al. (1998) J. Med. Chem. 41:3202-9). Cells were maintained as monolayer cultures in RPMI 1640 supplemented with 10% fetal bovine serum (Gemini-Bioproducts, Woodland, Calif.) and 2 mmol/L L-glutamine at 37° C. in a humidified atmosphere of 5% CO2. To remove the adherent cells from the flask for passaging and counting, cells were washed with PBS without calcium or magnesium, incubated with a small volume of 0.25% trypsin-EDTA solution (Sigma-Aldrich, St. Louis, Mo.) for 5 to 10 minutes, and washed with culture medium and centrifuged. All experiments were done using cells in exponential cell growth.
(§1) Cytotoxicity was assessed by a 3-(4,5-dimethylthiazol-2-yl)-2,5-diphenyltetrazolium bromide assay as previously described (Carmichael et al. (1987) Cancer Res. 47:936-42). Briefly, cells were seeded in 96-well microtiter plates (PC3 and DU145 at 5,000 cells/well and LNCaP at 10,000 cells/well; breast and ovarian cells at 4,000 cells/well) and allowed to attach. Cells were subsequently treated with a continuous exposure to the corresponding drug for 72 hours. A 3-(4,5-dimethylthiazol-2-yl)-2,5-diphenyltetrazolium bromide solution (at a final concentration of 0.5 mg/mL) was added to each well and cells were incubated for 4 hours at 37° C. After removal of the medium, DMSO was added and the absorbance was read at 570 nm. All assays were done in triplicate. The IC50 was then determined for each drug from a plot of log(drug concentration) versus percentage of cell kill.

[1] = tested on: MDA-MB-435 breast cancer cells; experiment: MTT cytotoxicity assay, MDA-MB-435; format: cell-based, human; conditions: MTT, 72 h, read-out: IC50
Experimental: (§2) The sensitivity of a panel of seven human cancer cell lines to SC144 was assessed by MTT-assay. […] The sensitivity towards SC144 was time- and dose-dependent.
as §1
(§3) Cytotoxicity was assessed by a 3-(4,5-dimethylthiazol-2-yl)-2,5-diphenyltetrazolium bromide (MTT) assay as previously described.^9 Briefly, cells were seeded in 96-well microtiter plates and allowed to attach. Cells were subsequently treated with continuous exposure to the corresponding drug for 72 h. An MTT solution (at a final concentration of 0.5 mg/mL) was added to each well, and cells were incubated for 4 h at 37° C. After removal of the medium, DMSO was added and the absorbance was read at 570 nm. All assays were done in triplicate. The IC50 was then determined for each drug from a plot of log (drug concentration) versus percentage of cells killed.

HT29 colon cancer cells = experiment: MTT cytotoxicity assay, HT 29; format: cell-based, human; conditions: 72 h
Excerpt: (§4) Human breast cancer cells MDA-MB-435 and colon cancer HT29, p53 mutant were purchased from the American Type Cell Culture (Manassas, Va.). The HCT116 P53^+/+ and HCT116 P53^−/− cells were kindly provided by Dr. Bert Vogelstein (Johns Hopkins Medical Institutions, Baltimore, Md.). Human prostate cancer cells, LNCaP, were kindly provided by Richard Cote (University of Southern California Keck School of Medicine). Cells were maintained as monolayer cultures in RPMI 1640 media supplemented with 10% fetal bovine serum (Gemini-Bioproducts, Woodland, Calif.) and 2 mmol/L L-glutamine at 37° C. in a humidified atmosphere of 5% CO2. To remove the adherent cells from the flask for passaging and counting, cells were washed with PBS without calcium or magnesium, incubated with a small volume of 0.25% trypsin-EDTA solution (Sigma-Aldrich, St. Louis, Mo.) for 5-10 min, and washed with culture medium and centrifuged. All experiments were performed using cells at exponential growth stage. Cells were routinely checked for mycoplasma contamination using a PCR-based assay (Stratagene, Cambridge, UK).
as §3

[2] = tested on: HCT 116 p53^−/− colon cancer cells; experiment: MTT cytotoxicity assay, HCT 116 p53-/-; format: cell-based, human; conditions: 72 h
Excerpt: as §4, §3

[3] = tested on: HCT 116 p53^+/+ colon cancer cells; experiment: MTT cytotoxicity assay, HCT 116 p53+/+; format: cell-based, human; conditions: 72 h
Excerpt: as §4, §3

HEY ovarian cancer cells = experiment: MTT cytotoxicity assay, HEY; format: cell-based, human; conditions: Homo sapiens; HEY ovarian cancer cells; read-out: 50% Cytotoxic concentration (IC50)
Experimental: as §2, §1

O=C(NNc1nc2cc(F)ccc2n2cccc12)c1ccccn1 (as salt: hydrochloride) [SC160′, N′-(7-Fluoropyrrolo[1,2-a]quinoxalin-4-yl)pyridine-2-carbohydrazide hydrochloride]
melting point: > 280 °C (dec.)

O=C(NNc1nc2cccc(F)c2n2cccc12)c1cnccn1 (as salt: hydrochloride) [SC161′, N′-(9-Fluoropyrrolo[1,2-a]quinoxalin-4-yl)pyrazine-2-carbohydrazide hydrochloride]
melting point: 248 °C (dec.)

O=C(NNc1nc2cc(F)ccc2n2cccc12)c1cnc2ccccc2n1 (as salt: hydrochloride) [SC166′, N′-(7-Fluoropyrrolo[1,2-a]quinoxalin-4-yl)quinoxaline-2-carbohydrazide hydrochloride]
melting point: 280 °C (dec.)

N.N.[Cl][Pt][Cl] [Cisplatin]
CC50 (MDA-MB-435 cells): 39 ± 1.41 µM
CC80 (MDA-MB-435 cells): 71 ± 1.4 µM

COc1cc([C@@H]2c3cc4c(cc3[C@@H](O[C@@H]3O[C@@H]5CO[C@@H](C)O[C@H]5[C@H](O)[C@H]3O)[C@H]3COC(=O)[C@H]23)OCO4)cc(OC)c1O [Etoposide]
CC50 (MDA-MB-435 cells; Homo sapiens, MDA-MB-435): 52.5 ± 3.5 µM
IC80 (MDA-MB-435 cells; Homo sapiens): 300 ± 106 µM

O=C1c2c(O)ccc(O)c2C(=O)c2c(NCCNCCO)ccc(NCCNCCO)c21 [Mitoxantrone]
CC50 (MDA-MB-435 cells; Homo sapiens, MDA-MB-435): 4.5 ± 1.4 µM
IC80 (MDA-MB-435 cells; Homo sapiens): 7.3 ± 0.35 µM

O=C(NNC(=O)c1ccccc1O)c1ccccc1O [SC20]
IC50 (CEM or HEY cells): 0.1 ± 0.01 µM

COc1ccc(/C=C2/C(=O)N(C(=O)c3ccccc3O)N=C2C)cc1OC [SC25]
IC50 (CEM or HEY cells): 0.15 µM

CC1=NN(C(=O)c2ccccc2O)C(=O)/C1=C/c1ccccc1O [SC26]
IC50 (CEM or HEY cells): 0.06 µM

CC1=NN(C(=O)c2ccccc2O)C(=O)/C1=C/c1ccc(O)cc1 [SC27]
IC50 (CEM or HEY cells): 0.06 µM

O=C(CN1C(=O)C/C(=C\c2ccc(Cl)cc2)C1O)NNC(=O)C1=CCCC=C1O (stereo not drawn) [SC28]
IC50 (CEM or HEY cells): 10 ± 2 µM

Cc1cccc(C(=O)NNC(O)c2ccc(N3C(=O)c4ccccc4C3=O)cc2)c1 (stereo not drawn) [SC29]
IC50 (CEM or HEY cells): 7 ± 2 µM

O=C(CNC(=O)c1ccccc1O)c1ccc(N2C(=O)c3ccccc3C2=O)cc1 [SC30]
IC50 (CEM or HEY cells): 6.5 ± 1 µM

C=C/C=C(\C=C)N1N=C(C)/C(=C(/NNC(=O)c2ccccc2O)c2ccccc2)C1=O [SC31]
IC50 (CEM or HEY cells): 10 ± 2 µM

C=C/C=C(\C=C)N1N=C(C)/C(=C/NNC(=O)c2ccccc2)C1=O [SC32]
IC50 (CEM or HEY cells): 2 ± 1 µM

O=C(/C=C/NNC(=O)c1ccccc1O)c1ccccc1 [SC33]
IC50 (CEM or HEY cells): 20 µM

O=C(COc1ccccc1Cl)NNC(=O)c1cc2ccccc2cc1O [SC34]
IC50 (CEM or HEY cells): 20 µM

COc1ccc2oc(=O)c(C(=O)NNC(=O)c3cccc(C)c3)cc2c1 [SC35]
IC50 (CEM or HEY cells): 12 ± 2 µM

COc1ccc(NC(=O)NNC(=O)c2c(O)ccc3ccccc23)cc1 [SC36]
IC50 (CEM or HEY cells): 20 µM

C=C1C/C(=C\c2ccc(Cl)cc2)C(=O)N1CC(=O)NNC(=O)c1ccccc1O [SC37]
IC50 (CEM or HEY cells): 15 ± 3 µM

O=C(NNc1nc2ccccc2n2cccc12)c1ccc[nH]1 [SC141, 1H-Pyrrole-2-carboxylic acid N′-pyrrolo[1,2-a]quinoxalin-4-yl-hydrazide]
melting point: 210 to 212 °C

Cc1cc2nc(NNC(=O)c3cnccn3)c3cccn3c2cc1C [SC143, Pyrazine-2-carboxylic acid N′-(7,8-dimethyl-pyrrolo[1,2-a]quinoxalin-4-yl)-hydrazide]
melting point: 116 °C

NCCC(=O)NNc1nc2ccccc2n2cccc12 [SC154, 3-Amino-propionic acid N′-pyrrolo[1,2-a]quinoxalin-4-yl-hydrazide]
IC50 ([1]; Homo sapiens): > 20 µM
IC50 (HT29 colon cancer cells; Homo sapiens): > 20 µM
IC50 ([2]; Homo sapiens): > 20 µM
melting point: 164.5 °C
IC50 ([3]; Homo sapiens): > 20 µM

O=C(NNc1nc2ccccc2n2cccc12)c1cc2ccccc2[nH]1 [SC155, 1H-indole-2-carboxylic acid N′-pyrrolo[1,2-a]quinoxalin-4-yl-hydrazide]
IC50 ([1]; Homo sapiens): > 20 µM
IC50 (HT29 colon cancer cells; Homo sapiens): > 20 µM
IC50 ([2]; Homo sapiens): > 20 µM
melting point: 186 °C
IC50 ([3]; Homo sapiens): > 20 µM

O=C(NNc1nc2ccccc2n2cccc12)c1ccc2[nH]ccc2c1 [SC156, 1H-Indole-5-carboxylic acid N′-pyrrolo[1,2-a]quinoxalin-4-yl-hydrazide]
IC50 ([1]; Homo sapiens): > 20 µM
IC50 (HT29 colon cancer cells; Homo sapiens): > 20 µM
IC50 ([2]; Homo sapiens): > 20 µM
melting point: 160 °C
IC50 ([3]; Homo sapiens): > 20 µM

COc1ccccc1C(=O)NNc1nc2ccccc2n2cccc12 [SC159, 2-Methoxy-N′-(H-pyrrolo[1,2-a]quinoxalin-4-yl)benzohydrazide]
IC50 [1]: > 20 µM
IC50 (HT29 colon cancer cells): > 20 µM
IC50 [2]: > 20 µM
IC50 [3]: > 20 µM

N#Cc1ccc(C(N)CC(=O)NNc2nc3ccccc3n3cccc23)cc1 (stereo not drawn) [SC163, 3-Amino-3-(4-cyano-phenyl)-propionic acid N′-pyrrolo[1,2-a]quinoxalin-4-yl-hydrazide]
IC50 ([1]; Homo sapiens): > 20 µM
IC50 (HT29 colon cancer cells; Homo sapiens): > 20 µM
IC50 ([2]; Homo sapiens): > 20 µM
IC50 ([3]; Homo sapiens): > 20 µM

COc1ccc(C(N)CC(=O)NNc2nc3ccccc3n3cccc23)cc1 (stereo not drawn) [SC164, 3-Amino-3-(4-methoxy-phenyl)-propionic acid N′-pyrrolo[1,2-a]quinoxalin-4-yl-hydrazide]
IC50 ([1]; Homo sapiens): > 20 µM
IC50 (HT29 colon cancer cells; Homo sapiens): > 20 µM
IC50 ([2]; Homo sapiens): > 20 µM
IC50 ([3]; Homo sapiens): > 20 µM

NC(CC(=O)NNc1nc2ccccc2n2cccc12)c1ccc(C(F)(F)F)cc1 (stereo not drawn) [SC165, 3-Amino-3-(4-trifluoromethyl-phenyl)-propionic acid N′-pyrrolo[1,2-a]quinoxalin-4-yl-hydrazide]
IC50 ([1]; Homo sapiens): > 20 µM
IC50 (HT29 colon cancer cells; Homo sapiens): > 20 µM
IC50 ([2]; Homo sapiens): > 20 µM
IC50 ([3]; Homo sapiens): > 20 µM

O=C(NNc1nc2ccccc2n2cccc12)c1ccccc1F [SC166, 2-Fluoro-benzoic acid N′-pyrrolo[1,2-a]quinoxalin-4-yl-hydrazide]
IC50 ([1]; Homo sapiens): 15 ± 1 µM
IC50 (HT29 colon cancer cells; Homo sapiens): 13 ± 2 µM
IC50 ([2]; Homo sapiens): 11 ± 1 µM
IC50 ([3]; Homo sapiens): 8 ± 1 µM

COc1ccccc1C(=O)NNC(=O)c1cc2ccccc2cc1O [SC274]
IC50 (HEY ovarian cancer cells): 11 µM

COc1ccc(C(=O)NNC(=O)c2ccc3ccccc3c2O)cc1 [SC275]
IC50 (HEY ovarian cancer cells): 12 µM

COc1ccc(C(=O)NNC(=O)c2cc3ccccc3cc2O)cc1 [SC276]
IC50 (HEY ovarian cancer cells): 13 µM

O=C(Cc1ccccc1)NNC(=O)c1c(O)c2ccccc2[nH]c1=O [SC277]
IC50 (HEY ovarian cancer cells): 14 µM

Cc1ccc(C(=O)NNC(=O)c2c(O)c3ccccc3[nH]c2=O)cc1 [SC278]
IC50 (HEY ovarian cancer cells): 13 µM

O=C(NNC(=O)c1c(O)c2ccccc2[nH]c1=O)c1ccccc1F [SC279]
IC50 (HEY ovarian cancer cells): 6 µM

O=C(CCl)NNc1nc(-c2ccccc2)c2cc(Cl)ccc2n1 [SC280]
IC50 (HEY ovarian cancer cells): 6 µM

CC(=O)O[C@H]1C(=O)[C@@]2(C)[C@H]([C@H](OC(=O)c3ccccc3)[C@]3(O)C[C@H](OC(=O)[C@H](O)[C@@H](NC(=O)c4ccccc4)c4ccccc4)C(C)=C1C3(C)C)[C@]1(OC(C)=O)CO[C@@H]1C[C@@H]2O [Taxol]
CC50 (MDA-MB-435 cells; Homo sapiens, MDA-MB-435): 0.04 ± 0.003 µM
IC80 (MDA-MB-435 cells; Homo sapiens): 0.07 ± 0.01 µM

— US20110034472A1, “Novel Compounds for Treatment of Cancer and Disorders Associated With Angiogenesis Function” (UNIVERSITY OF SOUTHERN CALIFORNIA, priority 2004, published 2011)
